Bridge positions count the residues as written; N and C are the ends. Square brackets hold non-standard residues; d marks the D form. Ends that are not written are not given here. Peptide text beside a SMILES is read from it. * marks the point of attachment. X1 = O=C1[C@@H]2[C@H](C(=O)N1CCCCCC(=O)*)[C@H]1C=C[C@@H]2C1; d(aIle) = CC[C@H](C)[C@@H](N)C(=O)O
Key:
elastase [1] = experiment: in vitro; conditions: isolated enzyme elastase, pH 7.2
Procedure: Enzymatic cleavage. Elastase was chosen as a model protease since it can cleave the three glycine fragment for easy recognition of cleavage product which is also similar to the natural initial cleavage product in serum. Remaining peptide percentage was measured by the ratio between the area under the curve at each time point and the area under the curve of the first time point.
Twenty microliters (20 μL) of elastase (1 mM), 20 μL of monomer (FIG. 9A) or polymer (FIG. 9B) (2 mM), 20 μL Tris buffer (250 mM Tris pH 7.2, 1500 mM NaCl, 500 mM CaCl2)) and 140 μL of water were added to a HPLC vial and loaded in the autosampler carousel and a sample immediately taken for injection at 1 min. Subsequently, the reaction was monitored via RP-HPLC (10-80% buffer B) with an injection every 50 minutes following the initial injection.
The ratio of the AUC at each time point relative to the first time point is plotted.

[2] = Systolic blood pressure by tail-cuff system in mice; format: in vivo, C57BL/6 mice; conditions: intraperitoneal injection, measured for 20 minutes
Procedure: Healthy C57BL/6 mice were injected with either terlipressin peptide or terlipressin PLP and the systolic blood pressure was measured over time by employing a tail-cuff system (CODA™). The mice were anesthetized with ketamine and placed in restraints over a heated pad. Following 5 minutes of background measurements, the drugs were administrated by intraperitoneal injection (IP) and the measurements continued for another 20 minutes (limited by the effect of ketamine). The delta BP was measured and plotted as a function of time.

[3] = human, in vivo; cited from earlier work
choroidal angiogenesis = experiment: Ex vivo choroidal sprouting assay; format: cell-based; conditions: FIGS. 24B-24D
Procedure: Ex vivo choroidal sprouting assay. As a first step towards determining the anti-angiogenic properties of the ABT898 PLPs, we performed an ex vivo choroidal sprouting assay. Briefly, eyes are enucleated, dissection is performed to remove the cornea, iris, lens, retina, and vitreous. The peripheral RPE-choroid-sclera complex is plated in Matrigel, angiogenesis develops spontaneously over Day 4-Day 7, and can be quantitated using reverse phase brightfield microscopy (FIG. 24A). ABT898 peptide had no effect upon choroidal angiogenesis (FIGS. 24B and 24C). Alternatively, ABT898 Ester and Amide PLPs, which are not hydrolysable, reduced angiogenesis by 24% and 81%, respectively. Cell penetrating peptides that are rich in arginine residues, aid the cellular penetration of cargo via endocytosis. In order to enhance the cellular penetration capacity and the solubility of the PLPs we modified the C-terminus with arginine moieties. […] Without wishing to be bound by any particular theory, we believe this is because the peptide alone is degraded in the Matrigel milieu. […] In addition, we performed a dose dependent analysis of growth area at Day 4 for treatment with ABT898 amide RR PLP, and the results are shown in FIG. 25.
Ex Vivo Choroidal Sprouting Assay: Anti-VEGF PLPs. […]

thermolysin [4] = target: T1, thermolysin (Bacillus thermoproteolyticus, UniProt P00800); experiment: Enzyme degradation kinetics of ABT898 peptide and PLP with thermolysin (HPLC); format: in vitro ADME; conditions: 200 μM stock, thermolysin 0.1 μM, over 450 min; PLP = AR PLP (FIG. 26A)
T1 sequence (P00800 233-548): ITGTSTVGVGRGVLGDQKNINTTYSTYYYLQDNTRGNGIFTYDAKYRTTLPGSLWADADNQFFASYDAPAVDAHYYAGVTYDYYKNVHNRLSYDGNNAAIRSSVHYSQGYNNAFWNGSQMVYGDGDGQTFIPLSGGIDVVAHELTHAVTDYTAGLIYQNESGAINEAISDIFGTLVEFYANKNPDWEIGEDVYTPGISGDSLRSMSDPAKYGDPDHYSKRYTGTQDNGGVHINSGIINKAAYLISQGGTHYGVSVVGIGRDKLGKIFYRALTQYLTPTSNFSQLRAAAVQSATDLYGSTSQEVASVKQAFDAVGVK
Procedure: FIGS. 26A-26B. Enzyme degradation kinetics and BLI assay. FIG. 26A. Percent enzymatic cleavage of peptide and PLP (AR PLP) upon the treatment of thermolysin (peptide:enzyme=2000:1) was monitored by HPLC over 450 min. FIG. 26B. Bio-layer interferometry data measuring the binding constant between AR PLP and CD36 receptor.
Enzyme Degradation Kinetics. An important feature of the PLP platform is that the globular structure of peptides arranged on a polymeric scaffold impart high proteolytic resistance. We performed an enzyme resistance assay to confirm that the PLP is resistant to proteolysis as compared to the peptide alone. Both peptide and PLP stock solutions (200 μM) were treated with thermolysin enzyme (0.1 μM) and their degradation profiles were monitored using high performance liquid chromatography (HPLC). […] We calculated the area under the peak at each time point to construct the percent cleaved and plotted it against time for both peptide and PLP (FIG. 26A).

elastase [5] = experiment: 20 μL of elastase (1 mM), 20 μL Tris buffer (250 mM Tris pH 7.2, 1500 mM NaCl, 500 mM CaCl2) and 140 μL of water; conditions: up to 550 min
thermolysin [6] = target: T1, thermolysin
Procedure: To discern the relationship between backbone structure and peptide stability against proteolysis, enzyme kinetics of each peptide brush polymer with different backbones were measured in PBS buffer with added protease (i.e., thermolysin).
For enzyme-triggered cleavage experiments, the molar ratio of thermolysin to peptide was set to 1:200. Moreover, the temperature was set to 37° C. […] Then thermolysin (0.1 mg, 3.0 nmol, 1 equiv.) was added into the polymer solution which was stirred in a preheated oil bath at 37° C.

Question: Which remaining at 550 min, 0.2 mM (elastase [1]) does the source give for `NCCCC[C@H](NC(=O)[C@@H]1CCCN1C(=O)[C@@H]1CSSC[C@H](NC(=O)CNC(=O)CNC(=O)CNC(=O)CCCCCN2C(=O)[C@@H]3[C@H](C2=O)[C@H]2C=C[C@@H]3C2)C(=O)N[C@@H](Cc2ccc(O)cc2)C(=O)N[C@@H](Cc2ccccc2)C(=O)N[C@@H](CCC(N)=O)C(=O)N[C@@H](CC(N)=O)C(=O)N1)C(=O)NCC(N)=O` [terlipressin peptide monomer] (X1-GGGCYFQNCPKG-NH2; disulfide 4-9) here?
Answer: ~50%

Question: What does the source list for `NCCCC[C@H](NC(=O)[C@@H]1CCCN1C(=O)[C@@H]1CSSC[C@H](NC(=O)CNC(=O)CNC(=O)CN)C(=O)N[C@@H](Cc2ccc(O)cc2)C(=O)N[C@@H](Cc2ccccc2)C(=O)N[C@@H](CCC(N)=O)C(=O)N[C@@H](CC(N)=O)C(=O)N1)C(=O)NCC(N)=O` [terlipressin, Terlipressin] (H-GGGCYFQNCPKG-NH2; disulfide 4-9)?
Answer: change in systolic blood pressure over time (delta BP) [2]: immediate and very large increase in blood pressure, which dropped rapidly in a manner of few minutes; distribution half-life [3]: 8 min; elimination half-life [3]: 6 min

Question: For “ABT898 peptide: synthetic peptide GVi(allo)SQIRP which mimics the TSP1 type-1 repeat (GV[d(aIle)]SQIRP) [reference compound]”, which “effect upon choroidal angiogenesis” value (choroidal angiogenesis) is on record?
Answer: no effect

Question: What about the “degradation by thermolysin (HPLC peak over time)” value (thermolysin [4]) of the same compound?
Answer: rapid degradation

Question: Which cleaved bond (elastase [5]) does the source give for GGGCYFQNCPKG here?
Answer: G-C

Question: Which “proteolytic stability against thermolysin” value (thermolysin [6]) does the source give for “poly(PepNorIm15): peptide brush polymer of GPLGLAGGWGERDGS norbornene dicarboxyimide monomer, DP 15 (also: peptide is a side chain of a norbornene dicarboxyimide brush polymer, DP 15)” here?
Answer: demonstrated resistance to proteolysis
